In article PMC10291556 (Journal of Medicinal Chemistry, 2023):

Columns and labels:
Format in all cases: cell-based, human
HeLa cells [1] = assay: Re-adhesion assay; conditions: 10× IC50, 1 h
Protocol: Figure 7 (A–E) Wound healing assay. The monolayer of HeLa cells was scratched with a 10 μL tip, and a starving medium containing the tested complexes was added. The shots were taken at times 0 and 24 h. (A) Control, non-treated cells; (B) cells treated with complex 3; (C) cells treated with complex 4. […] (E) Evaluation of wound healing assay. Bars represent gap size vs. Control (100%), following a 24 h incubation with the investigated compounds. Light gray bars: complex 3; dark gray bars: complex 4; black bar: complex 2. (F) Re-adhesion assay. […] Following trypsinization, the cells were resuspended in Dulbecco’s modified Eagle medium (DMEM), counted, left to reconstitute adhesive membrane proteins for 30 min, and re-seeded at the density of 3× 10^4 cells/100 μL/well. After 30 min of incubation at 37 °C, the re-adhesion activity was determined as described in the Experimental Section. […]
HeLa cells were grown in 6-well plates for 24 h. […] Following the treatment, the cells were trypsinized, washed, and resuspended in fresh serum-free medium, counted, and left at room temperature for 30 min to allow surface receptor reconstitution. […] The number of adhered cells was determined with sulforhodamine B (SRB) assay. […] The bound SRB was dissolved in 10 mM Tris base (pH 10.5), and the absorbance was recorded at 570 nm with an Absorbance Reader (SUNRISE TECAN, SCHOELLER). […]

COX in HeLa cells = assay: COX activity assay (kit) in treated cells; conditions: 24 h, 1× IC50,72h, vs untreated control
Protocol: The results are expressed relative to the COX activity of untreated control.
HeLa cells were seeded in 6-well plates at a density of 10^5 cells/well and incubated overnight. The cells were treated with the tested compounds at concentrations corresponding to 1× IC50. Following a 24 h treatment, the cells were lyzed with radioimmunoprecipitation assay (RIPA) buffer supplemented with proteinase inhibitors on ice for 10 min. The extracts were cleared with centrifugation (12,000g/5 min), and protein content was determined using Bradford assay. COX activity was determined with a COX Activity Assay Kit (Abcam). 6 μg of protein was used in the reaction. The experiment was set up according to the manufacturer’s instructions. The fluorescence (Ex/Em 535/587 nm) was read in a kinetic mode, and the COX inhibition was expressed as a percentage of the activity of the untreated control.

COX-2 in HeLa cells = assay: Western blotting of COX-2; conditions: 24 h, 1×, 3× IC50, Western blot
Protocol: (B) Quantitative evaluation of Western blotting data; the relative expression of COX-2 normalized to GAPDH. Data represents the mean ± SD of two experiments. The stars indicate the statistical significance of difference vs control determined with the Student t-test (*p < 0.05, **p < 0.01, ***p < 0.001).
HeLa cells were seeded in 60 mm dishes at a density of 3 × 10^5 cells/dish and cultured for 20 h. The cells were then treated with the tested compounds at concentrations indicated in the text. After 24 h of treatment, the cells were scraped, washed, and pelleted. […] 4–20% SDS-PAGE (sodium dodecyl sulfate-polyacrylamide gel electrophoresis) (Mini-PROTEAN TGX Precast Gel) was used to resolve the proteins. After transferring to the polyvinylidene fluoride membrane, the proteins were detected using appropriate antibodies: anti-GAPDH antibody (mouse, Sigma-Aldrich), Anti-COX-2 (rabbit, Abcam), Anti-α-, β-, or γ-tubulin (all rabbit, Abcam), Anti-β-actin (mouse, Abcam), Goat Anti-Rabbit IgG(HRP) (Abcam; HRP = horseradish peroxidase), and Goat Anti-Mouse IgG(HRP) (ThermoFisher Scientific). SignalFire ECL Reagent (A + B) was used as a substrate for HRP, and the luminescence was recorded with Amersham Imager 680. The densities in the images were assessed with the Aida image analysis software.

HeLa cells [2] = assay: Glucose consumption; conditions: 24 h, IC50 concentrations
Protocol: Figure 3 (A) Lactate production. Relative lactate concentration in medium following a 6 h treatment of HeLa cells with the investigated compounds at concentrations corresponding to 5× IC50. […] Data represents mean ± SD, n = 2–4; asterisks indicate a statistically significant difference from the untreated control (*p < 0.01, **p < 0.005, ***, ***p < 0.001).
Glucose concentration in the culture medium prior to and after the treatment was determined with an Amplex Red Glucose/Glucose Oxidase Assay Kit (Invitrogen) following the producer’s protocol. Glucose consumption was normalized to final cell counts. The glucose amount consumed by the non-treated control was taken at 100%.

MDA-MB-231 = assay: MTT antiproliferative assay, 72 h; conditions: MTT, 72 h incubation, mean ± SD; read-out: IC50 MDA-MB-231
A2780 = assay: MTT antiproliferative assay, 72 h; conditions: MTT, 72 h incubation, mean ± SD; read-out: IC50 A2780
A2780cisR = assay: MTT antiproliferative assay, 72 h; conditions: MTT, 72 h incubation, mean ± SD; read-out: IC50 A2780cisR
HCT-116 = assay: MTT antiproliferative assay, 72 h; conditions: MTT, 72 h incubation, mean ± SD; read-out: IC50 HCT-116
HeLa = assay: MTT antiproliferative assay, 72 h; conditions: for increase of antiproliferative activity relative to Pt(IV) complex 2: IC50, Table 1; for IC50: MTT, 72 h incubation, mean ± SD, read-out: IC50 HeLa
MCF-7 = assay: MTT antiproliferative assay, 72 h; conditions: MTT, 72 h incubation, mean ± SD; read-out: IC50 MCF-7

Row | SMILES | re-adhesion to the growth surface (HeLa cells [1]) | inhibition of COX activity (COX in HeLa cells) | intracellular level of COX-2 protein (COX-2 in HeLa cells) | glucose consumption (HeLa cells [2]) | IC50 (MDA-MB-231) | IC50 (A2780) | IC50 (A2780cisR) | IC50 (HCT-116) | increase of antiproliferative activity relative to Pt(IV) complex 2 (HeLa) | IC50 (HeLa) | IC50 (MCF-7)
1 | Cc1c(C)c2c3c4c1=CC=C[N]4[Pt][N]3C=CC=2.NCCNC(=O)Cc1ccccc1Nc1c(Cl)cccc1Cl.NCCNC(=O)Cc1ccccc1Nc1c(Cl)cccc1Cl.N[C@H]1CCCC[C@@H]1N [complex 4, Pt^IV56MeSS(DCF)2] | lower the ability of HeLa cells to re-adhere to the growth surface | slightly but significantly inhibited COX-2 activity | able to reduce the intracellular level of COX-2 protein | reduction in glucose consumption | 290 ± 40 nM | 50 ± 10 nM | 80 ± 20 nM | 180 ± 50 nM | 9 fold | 310 ± 80 nM | 330 ± 50 nM
2 | Cc1c(C)c2c3c4c1=CC=C[N]4[Pt]([Cl])[N]3C=CC=2.NCCNC(=O)Cc1ccccc1Nc1c(Cl)cccc1Cl.N[C@H]1CCCC[C@@H]1N [complex 3, Pt(IV)56MESSenDCFCl] | lower the ability of HeLa cells to re-adhere to the growth surface | slightly but significantly inhibited COX-2 activity | able to reduce the intracellular level of COX-2 protein | reduction in glucose consumption | 400 ± 100 nM | 120 ± 20 nM | 130 ± 20 nM | 200 ± 30 nM | 4.5 fold | 600 ± 100 nM | 400 ± 100 nM
